# Where two headings read alike, the source gives them in different places.
# What was measured:
# [1] = tested on: patients (premature ejaculation); conditions: fluoxetine continuous then prn dosing; cited from earlier work
# [2] = Plasma concentration profile in volunteers (FIG. 1); format: in vivo, human; conditions: 20 volunteers, 40 mg dapoxetine at time zero of the 14th day of daily dosing
# [3] = tested on: men presenting with premature ejaculation (PE) as defined in the DSM IV; experiment: Global Satisfaction Question in the crossover evaluation of prn dapoxetine; format: in vivo, human
# Source text: The patient-perceived-benefit of prn dosing method with dapoxetine, or a pharmaceutically acceptable salt thereof, can be determined, for example, through administration of a global satisfaction question, such as:
# “How would you complete the following statement?
# The new bottle of medication that I received at my previous visit made my premature ejaculation problem:
# Measures for “ejaculatory latency” and “number of thrusts prior to ejaculation” should be recorded as the average of the 4-6 events recorded in the event logs for that treatment period. Subjects who ejaculated prior to intromission should have a zero recorded for both “ejaculatory latency” and “number of thrusts prior to ejaculation.” “Measures for Subject and Partner satisfaction scores (global impression)” and “Subject and Partner ejaculatory (or sexual) quality-of-life questionnaire” for each treatment period should be based on the score collected at the visit immediately following each treatment period.
# (§1) During a lead-in period (maximum of 4 weeks), patients were asked to record ejaculatory latency a minimum of 4 times. Latency is defined as the time span, as measured by the patient's partner via a stopwatch, from vaginal intromission to ejaculation. At the completion of the lead-in period, patients were randomized to treatment with either 20 mg or 40 mg dapoxetine or placebo. Study medication was to be ingested 1 to 3 hours prior to a planned intercourse event. The time study drug was taken and time of intercourse were recorded in an event log. Patients were instructed to attempt intercourse at least 4 times over the 4 week treatment period and were issued a sufficient supply of medication to complete 6 attempts at intercourse. The outcome of each attempt (success of intromission and EL) was recorded in the event log initialed by the patient and their partner. Patients returned to the study clinic for a follow-up visit after 4 to 6 attempts at intercourse were completed. At visits 4, 5, and 6 patients were asked to answer the Global Satisfaction Questions and to complete the PEQ.
# The results of a final analysis of a randomized, double-blind, three way crossover evaluation of two prn doses of dapoxetine (20 mg and 40 mg) in the treatment of premature ejaculation are disclosed in the following tables. The final analyses of the data was conducted following completion of all 3 treatment periods.
# [4] = tested on: men presenting with premature ejaculation (PE) as defined in the DSM IV; experiment: Ejaculatory latency (stopwatch, intromission to ejaculation) in randomized, double-blind, three way crossover evaluation of prn dapoxetine; format: in vivo, human; conditions: for Percentage of patients achieving increases of at least one minute in EL: placebo 14%; for Increase of mean ejaculatory latency from baseline: placebo group 24 seconds
# Procedure: The results of an interim analysis of a randomized, double-blind, three way crossover evaluation of two prn doses of dapoxetine (20 mg and 40 mg) in the treatment of premature ejaculation (hereinafter referred to as “PE”) are disclosed in tables 8a and 8b. Each patient is assigned to receive 4 to 6 administrations of each of the 3 study doses, in a random order, over 3 periods of not more than 4 weeks each. The interim analysis of the data was conducted following completion of the first treatment period.
# The study comprised 155 men, aged 19 to 60, presenting with PE as defined in the DSM IV. All patients were involved in a stable monogamous sexual relationship of at least 6 months duration and reported a history of intravaginal ejaculatory latency (hereinafter referred to as “EL”) of less than 2 minutes in greater than half of their intercourse experiences. History of significant cardiovascular disease or psychiatric disorder, uncontrolled hypertension, erectile dysfunction, and substance abuse were criteria for exclusion.
# as §1
# Of the 155 patients randomized, 145 completed the treatment period. 54 patients were randomized to the placebo group, while 56 and 45 received 20 mg or 40 mg dapoxetine respectively. Although patients were randomly assigned to treatment sequences in blocks of 6, the imbalance in the number of patients randomized to each group was due to the random distribution of the 40 mg assignment to later allocations within the blocks. The intent-to-treat population was comprised of 143 patients, each of whom had baseline and follow-up data for analysis. Analysis of EL was conducted on the 138 patients who had latency data at baseline and at least one post-medication event. The percentage of patients with data sufficient for inclusion in the analysis of EL was lower in the 40 mg group than in either of the other 2 groups. This difference may be attributable to the smaller size of the 40 mg group, such that each patient represents a greater percentage of the whole, rather than being a function of the dose administered. […]
# [5] = tested on: potent men with premature ejaculation; conditions: 37 men, 50 mg oral sertraline; cited from earlier work
# [6] = tested on: patients suffering from premature ejaculation; conditions: 26 patients, cited from earlier work
# [7] = tested on: patients (premature ejaculation); conditions: cited from earlier work
# [8] = patients with baseline less than one minute, 20 mg prn
# [9] = patients with baseline less than one minute, 40 mg prn
# [10] = patients with baseline less than two minutes, 20 mg prn
# [11] = patients with baseline less than two minutes, 40 mg prn
# [12] = patients with baseline ≧ one minute, 40 mg prn
# [13] = patients with baseline ≧ two minutes, 40 mg prn
# [14] = final analysis, all patients, 20 mg prn
# [15] = final analysis, all patients, 40 mg prn
smiles,measurement,setting,value
CNCCC(Oc1ccc(C(F)(F)F)cc1)c1ccccc1 (stereo not drawn) [fluoxetine],Patients initially improved with continuous dosing that lost benefit after switching to prn dosing,[1],100%
"CN(C)[C@@H](CCOc1cccc2ccccc12)c1ccccc1 [Dapoxetine, (S)-(+)-N,N-Dimethyl-1-phenyl-3-(1-naphthalenyloxy)-propanamine]",Plasma concentration profile (in words),[2],rapid-onset to reach peak plasma concentration followed by rapid metabolism (i.e. short half-life)
same,Global Satisfaction: Better/Much Better,"[3]; ""Moderate"" patients, 20 mg prn",34.4%
same,Global Satisfaction: ≧Slightly Better,"[3]; ""Moderate"" patients, 20 mg prn",51.6%
same,Global Satisfaction: Better/Much Better,"[3]; ""Moderate"" patients, 40 mg prn",50%
same,Global Satisfaction: ≧Slightly Better,"[3]; ""Moderate"" patients, 40 mg prn",66.7%
same,Global Satisfaction: Better/Much Better,"[3]; ""Severe"" patients, 20 mg prn",17.2%
same,Global Satisfaction: ≧Slightly Better,"[3]; ""Severe"" patients, 20 mg prn",48.5%
same,Global Satisfaction: Better/Much Better,"[3]; ""Severe"" patients, 40 mg prn",25.5%
same,Global Satisfaction: ≧Slightly Better,"[3]; ""Severe"" patients, 40 mg prn",54.1%
same,Global Satisfaction: Better/Much Better,[3]; [8],13%
same,Global Satisfaction: ≧Slightly Better,[3]; [8],38%
same,Global Satisfaction: Better/Much Better,[3]; [9],24%
same,Global Satisfaction: ≧Slightly Better,[3]; [9],46%
same,Global Satisfaction: Better/Much Better,[3]; [10],23%
same,Global Satisfaction: ≧Slightly Better,[3]; [10],50%
same,Global Satisfaction: Better/Much Better,[3]; [11],29%
same,Global Satisfaction: ≧Slightly Better,[3]; [11],50%
same,Global Satisfaction: Better/Much Better,[3]; [12],36.4%
same,Global Satisfaction: ≧Slightly Better,[3]; [12],65.0%
same,Global Satisfaction: Better/Much Better,[3]; [13],39.1%
same,Global Satisfaction: ≧Slightly Better,[3]; [13],65.2%
same,Ejaculatory Latency (LS Mean),"[4]; ""Moderate"" patients, baseline 1.68, 20 mg prn",2.64 min
same,Ejaculatory Latency (LS Mean),"[4]; ""Moderate"" patients, baseline 1.68, 40 mg prn",2.93 min
same,Change in Latency (LS Mean),"[4]; ""Moderate"" patients, 20 mg prn",0.94 min
same,Change in Latency (LS Mean),"[4]; ""Moderate"" patients, 40 mg prn",1.27 min
same,Ejaculatory Latency (LS Mean),"[4]; ""Severe"" patients, baseline 1.23, 20 mg prn",2.60 min
same,Ejaculatory Latency (LS Mean),"[4]; ""Severe"" patients, baseline 1.23, 40 mg prn",3.09 min
same,Change in Latency (LS Mean),"[4]; ""Severe"" patients, 20 mg prn",1.42 min
same,Change in Latency (LS Mean),"[4]; ""Severe"" patients, 40 mg prn",1.93 min
same,Change in Latency (LS Mean),[4]; [14],1.43 min
same,Ejaculatory Latency (LS Mean),[4]; [14],2.78 min
same,Change in Latency (LS Mean),[4]; [15],1.86 min
same,Ejaculatory Latency (LS Mean),[4]; [15],3.19 min
same,Ejaculatory Latency (LS Mean),"[4]; final analysis, patients with baseline less than one minute, 20 mg prn",1.2 min
same,Ejaculatory Latency (LS Mean),"[4]; final analysis, patients with baseline less than one minute, 40 mg prn",1.7 min
same,Treatment of premature ejaculation with the first dose (in words),"[4]; first dose administered, no lead-in period (Table 12)",can effectively and unexpectedly treat premature ejaculation with the first dose administered to a patient
same,"Ejaculatory latency, Mean ± S.D.","[4]; interim analysis, follow-up, first treatment period, 20 mg prn, 50 patients",2.3 ± 2.26 min
same,"Ejaculatory latency, Mean ± S.D.","[4]; interim analysis, follow-up, first treatment period, 40 mg prn, 37 patients",2.3 ± 2.19 min
same,"Ejaculatory latency, Range","[4]; interim analysis, follow-up, 20 mg prn",0.1 to 11.4 min
same,Ejaculatory Latency (LS Mean),"[4]; interim analysis, follow-up, 20 mg prn, adjusted for baseline and sample size",2.41 min
same,"Ejaculatory latency, Range","[4]; interim analysis, follow-up, 40 mg prn",0.0 to 9.8 min
same,Ejaculatory Latency (LS Mean),"[4]; interim analysis, follow-up, 40 mg prn, adjusted for baseline and sample size",2.52 min
same,"Ejaculatory latency, Range","[4]; interim analysis, follow-up, 20 & 40 mg combined",0.0 to 11.4 min
same,"Ejaculatory latency, Mean ± S.D.","[4]; interim analysis, follow-up, 20 & 40 mg combined, 87 patients",2.3 ± 2.22 min
same,Percentage of patients achieving increases of at least one minute in EL,"[4]; interim analysis, 20 mg prn",22%
same,Increase of mean ejaculatory latency from baseline,"[4]; interim analysis, 20 mg prn",one
same,Percentage of patients achieving increases of at least one minute in EL,"[4]; interim analysis, 40 mg prn",24%
same,Increase of mean ejaculatory latency from baseline,"[4]; interim analysis, 40 mg prn",one
same,Change in Latency (LS Mean),[4]; [8],0.6 min
same,Change in Latency (LS Mean),[4]; [9],1.3 min
same,Change in Latency (LS Mean),[4]; [10],1.4 min
same,Ejaculatory Latency (LS Mean),[4]; [10],2.4 min
same,Change in Latency (LS Mean),[4]; [11],1.5 min
same,Ejaculatory Latency (LS Mean),[4]; [11],2.5 min
same,Ejaculatory Latency (LS Mean),"[4]; patients with baseline ≧ one minute, baseline 1.90, 40 mg prn",4.24 min
same,Change in Latency (LS Mean),[4]; [12],2.40 min
same,Ejaculatory Latency (LS Mean),"[4]; patients with baseline ≧ two minutes, baseline 3.19, 40 mg prn",6.59 min
same,Change in Latency (LS Mean),[4]; [13],3.43 min
same,Ejaculatory Latency (LS Mean),"[4]; recorded after administration of a single dose, 20 mg",2.37 ± 0.24 min
same,Ejaculatory Latency (LS Mean),"[4]; recorded after administration of a single dose, 40 mg",1.98 ± 0.27 min
CN[C@H]1CC[C@@H](c2ccc(Cl)c(Cl)c2)c2ccccc21 [sertraline],Conclusion on treatment of premature ejaculation (in words),[5],appeared to be a useful and well tolerated oral treatment for premature ejaculation after 1 to 2 weeks
Fc1ccc([C@@H]2CCNC[C@H]2COc2ccc3c(c2)OCO3)cc1 [paroxetine],Ejaculatory latency (in words),[6]; prn 20 mg paroxetine tablet 3-4 hours prior to intercourse,statistically significant increase in ejaculatory latency in the second through fourth weeks of paroxetine treatment but not in the first week
same,Frequency of intercourse (in words),[6]; prn 20 mg paroxetine,significantly increased only after 3 weeks of prn paroxetine therapy
same,Patients with improved ejaculatory latency,[7]; 20 mg prn paroxetine,42%
same,Patients initially improved with continuous dosing that lost benefit after switching to prn dosing,[7]; paroxetine continuous then prn dosing,37%
